Assay results: patent US20240360081A1, “SULFONAMIDE OREXIN RECEPTOR AGONISTS AND USES THEREOF” (Jazz Pharmaceuticals Ireland Limited, priority 2021, published 2024)

Molecular target: T1, human recombinant OX2 (hOX2) receptor expressed in CHO cells (Homo sapiens, UniProt O43614)
T1 construct: host or cells: CHO cells (hOX2-CHO)
T1 sequence (O43614 1-444): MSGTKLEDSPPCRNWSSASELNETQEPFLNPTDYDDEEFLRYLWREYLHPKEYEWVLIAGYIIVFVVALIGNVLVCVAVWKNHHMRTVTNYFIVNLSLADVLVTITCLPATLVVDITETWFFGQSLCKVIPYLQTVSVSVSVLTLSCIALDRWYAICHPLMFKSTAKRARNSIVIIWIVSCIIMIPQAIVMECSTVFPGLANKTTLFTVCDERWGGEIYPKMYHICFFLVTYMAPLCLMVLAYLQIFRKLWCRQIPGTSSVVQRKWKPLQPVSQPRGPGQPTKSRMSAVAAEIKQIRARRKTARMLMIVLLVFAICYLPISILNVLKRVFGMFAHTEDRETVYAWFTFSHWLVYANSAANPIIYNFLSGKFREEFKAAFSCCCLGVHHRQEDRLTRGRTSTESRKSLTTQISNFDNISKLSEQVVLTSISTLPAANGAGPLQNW
Assay: IP-1 accumulation assay (IP-One HTRF) in hOX2-CHO cells
Assay type: cell-based
Conditions: 60 min at 37° C., 11 points CRC, response as % of maximal OX-A response
Summary of the method: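 CHO cells expressing hOX2, 20,000 cells/well in HBSS with 20 mM HEPES pH 7.4, 50 mM LiCl, 0.1% BSA; 11-point compound series, 0.5% DMSO final, 60 min at 37 °C. IP-1 by HTRF (665/615 ratio) after 60 min at room temperature, as % of maximal OX-A response; EC50 by four-parameter logistic fit, mean of ≥2 experiments in duplicate.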

EC50 [nM] | SMILES
< 100 | Cc1cc(C)c(=O)n(C(CNS(C)(=O)=O)CO[C@H]2CC[C@@H](c3ccccc3)CC2)c1 (stereo partly drawn) [Example 2s, N-[2-(3,5-dimethyl-2-oxo-1,2-dihydropyridin-1-yl)-3-{[(CIS)-4-phenylcyclohexyl]oxy}propyl]methanesulfonamide]
1000 to 10000 | Cn1cccc(C(CNS(C)(=O)=O)CO[C@H]2CC[C@@H](c3ccccc3)CC2)c1=O (stereo partly drawn) [Example 4, N-[2-(1-methyl-2-oxo-1,2-dihydropyridin-3-yl)-3-{[(CIS)-4-phenylcyclohexyl]oxy}propyl]methanesulfonamide]
1000 to 10000 | Cc1cc(C(CNS(C)(=O)=O)CO[C@H]2CC[C@@H](c3ccccc3)CC2)c(=O)n(C)c1 (stereo partly drawn) [Example 5a, N-[2-(1,5-dimethyl-2-oxo-1,2-dihydropyridin-3-yl)-3-{[(CIS)-4-phenylcyclohexyl]oxy}propyl]methanesulfonamide]
< 100 | Cc1cc(C(CNS(=O)(=O)N(C)C)CO[C@H]2CC[C@@H](c3cccc(F)c3)CC2)c(=O)n(C(F)F)c1 (stereo partly drawn) [Example 5aa, 1-(difluoromethyl)-3-{1-[(dimethylsulfamoyl)amino]-3-{[(CIS)-4-(3-fluorophenyl)cyclohexyl]oxy}propan-2-yl}-5-methyl-1,2-dihydropyridin-2-one]
100 to 1000 | Cc1cc(C(CNS(C)(=O)=O)CO[C@H]2CC[C@@H](c3cccc(F)c3)CC2)c(=O)n(CC#N)c1 (stereo partly drawn) [Example 5e, N-{2-[1-(cyanomethyl)-5-methyl-2-oxo-1,2-dihydropyridin-3-yl]-3-{[(CIS)-4-(3-fluorophenyl)cyclohexyl]oxy}propyl}methanesulfonamide]
100 to 1000 | Cc1cc(C(CNS(=O)(=O)N(C)C)CO[C@H]2CC[C@@H](c3ccccc3)CC2)n2nccc2c1 (stereo partly drawn) [Example 5g, dimethyl[(2-{5-methylpyrazolo[1,5-a]pyridin-7-yl}-3-{[(CIS)-4-phenylcyclohexyl]oxy}propyl)sulfamoyl]amine]
1000 to 10000 | CN(C)S(=O)(=O)NCC(CO[C@H]1CC[C@@H](c2cccc(F)c2)CC1)c1cccc2c1nnn2C (stereo partly drawn) [Example 5h, dimethyl({[2-(1-methyl-1H-1,2,3-benzotriazol-4-yl)-3-{[(CIS)-4-(3-fluorophenyl)cyclohexyl]oxy}propyl]sulfamoyl})amine]
1000 to 10000 | Cc1cc(C)nc(C(CNS(C)(=O)=O)CO[C@H]2CC[C@@H](c3ccccc3)CC2)c1 (stereo partly drawn) [Example 5i, N-[2-(4,6-dimethylpyridin-2-yl)-3-{[(CIS)-4-phenylcyclohexyl]oxy}propyl]methanesulfonamide]
< 100 | Cc1cc(C)[n+]([O-])c(C(CNS(C)(=O)=O)CO[C@H]2CC[C@@H](c3ccccc3)CC2)c1 (stereo partly drawn) [Example 5j, 2-(1-methanesulfonamido-3-{[(CIS)-4-phenylcyclohexyl]oxy}propan-2-yl)-4,6-dimethylpyridin-1-ium-1-olate]
< 100 | Cc1cc(C(CNS(=O)(=O)CF)CO[C@H]2CC[C@@H](c3cccc(F)c3)CC2)c(=O)n(C)c1 (stereo partly drawn) [Example 5m, N-[2-(1,5-dimethyl-2-oxo-1,2-dihydropyridin-3-yl)-3-{[(CIS)-4-(3-fluorophenyl)cyclohexyl]oxy}propyl]-1-fluoromethanesulfonamide]
> 10000 | Cc1cc(C(CNS(C)(=O)=O)COC2CCN(c3ncc(F)cn3)CC2)c(=O)n(C)c1 (centres unmarked) [Example 5p, N-[2-(1,5-dimethyl-2-oxo-1,2-dihydropyridin-3-yl)-3-{[1-(5-fluoropyrimidin-2-yl)piperidin-4-yl]oxy}propyl]methanesulfonamide]
< 100 | Cc1cc(C(CNS(=O)(=O)N(C)C)CO[C@H]2CC[C@@H](c3cccc(F)c3)CC2)c(=O)n(C)c1 (stereo partly drawn) [Example 5q, 3-{1-[(dimethylsulfamoyl)amino]-3-{[(CIS)-4-(3-fluorophenyl)cyclohexyl]oxy}propan-2-yl}-1,5-dimethyl-1,2-dihydropyridin-2-one]

The remaining lines, values behind:

SMILES | EC50 [nM]
CS(=O)(=O)NCC(CO[C@H]1CC[C@@H](c2ccccc2)CC1)n1cccc(C(F)(F)F)c1=O (stereo partly drawn) [Example 2c, N-{2-[2-oxo-3-(trifluoromethyl)-1,2-dihydropyridin-1-yl]-3-{[(CIS)-4-phenylcyclohexyl]oxy}propyl}methanesulfonamide] | 1000 to 10000
Cc1ccn(C(CNS(C)(=O)=O)CO[C@H]2CC[C@@H](c3ccccc3)CC2)c(=O)c1 (stereo partly drawn) [Example 2d, N-[2-(4-methyl-2-oxo-1,2-dihydropyridin-1-yl)-3-{[(CIS)-4-phenylcyclohexyl]oxy}propyl]methanesulfonamide] | 1000 to 10000
CS(=O)(=O)NCC(CO[C@H]1CC[C@@H](c2ccccc2)CC1)n1cccc(C#N)c1=O (stereo partly drawn) [Example 2e, N-[2-(3-cyano-2-oxo-1,2-dihydropyridin-1-yl)-3-{[(CIS)-4-phenylcyclohexyl]oxy}propyl]methanesulfonamide] | 1000 to 10000
CS(=O)(=O)NCC(CO[C@H]1CC[C@@H](c2ccccc2)CC1)n1cccc(F)c1=O (stereo partly drawn) [Example 2f, N-[2-(3-fluoro-2-oxo-1,2-dihydropyridin-1-yl)-3-{[(CIS)-4-phenylcyclohexyl]oxy}propyl]methanesulfonamide] | 1000 to 10000
Cc1ccc(=O)n(C(CNS(C)(=O)=O)CO[C@H]2CC[C@@H](c3ccccc3)CC2)c1 (stereo partly drawn) [Example 2i, N-[2-(5-methyl-2-oxo-1,2-dihydropyridin-1-yl)-3-{[(CIS)-4-phenylcyclohexyl]oxy}propyl]methanesulfonamide] | 100 to 1000
CS(=O)(=O)NCC(CO[C@H]1CC[C@@H](c2ccccc2)CC1)n1cc(C(F)(F)F)ccc1=O (stereo partly drawn) [Example 2l, N-{2-[2-oxo-5-(trifluoromethyl)-1,2-dihydropyridin-1-yl]-3-{[(CIS)-4-phenylcyclohexyl]oxy}propyl}methanesulfonamide] | > 10000
Cc1ccn(C(CNS(C)(=O)=O)CO[C@H]2CC[C@@H](c3ccccc3)CC2)c(=O)c1C (stereo partly drawn) [Example 2m, N-[2-(3,4-dimethyl-2-oxo-1,2-dihydropyridin-1-yl)-3-{[(CIS)-4-phenylcyclohexyl]oxy}propyl]methanesulfonamide] | 100 to 1000
CS(=O)(=O)NCC(CO[C@H]1CC[C@@H](c2ccccc2)CC1)n1cc(Cl)ccc1=O (stereo partly drawn) [Example 2p, N-[2-(5-chloro-2-oxo-1,2-dihydropyridin-1-yl)-3-{[(CIS)-4-phenylcyclohexyl]oxy}propyl]methanesulfonamide] | 1000 to 10000
CS(=O)(=O)NCC(CO[C@H]1CC[C@@H](c2ccccc2)CC1)n1cc(OC(F)F)ccc1=O (stereo partly drawn) [Example 2q, N-{2-[5-(difluoromethoxy)-2-oxo-1,2-dihydropyridin-1-yl]-3-{[(CIS)-4-phenylcyclohexyl]oxy}propyl}methanesulfonamide] | 1000 to 10000
CS(=O)(=O)NCC(CO[C@H]1CC[C@@H](c2ccccc2)CC1)n1cc(C#N)ccc1=O (stereo partly drawn) [Example 2r, N-[2-(5-cyano-2-oxo-1,2-dihydropyridin-1-yl)-3-{[(CIS)-4-phenylcyclohexyl]oxy}propyl]methanesulfonamide] | 1000 to 10000
COc1ccc(=O)n(C(CNS(C)(=O)=O)CO[C@H]2CC[C@@H](c3ccccc3)CC2)c1 (stereo partly drawn) [Example 2v, N-[2-(5-methoxy-2-oxo-1,2-dihydropyridin-1-yl)-3-{[(CIS)-4-phenylcyclohexyl]oxy}propyl]methanesulfonamide] | 1000 to 10000
CS(=O)(=O)NCC(CO[C@H]1CC[C@@H](c2ccccc2)CC1)n1ccc(C(F)(F)F)cc1=O (stereo partly drawn) [Example 2w, N-{2-[2-oxo-4-(trifluoromethyl)-1,2-dihydropyridin-1-yl]-3-{[(CIS)-4-phenylcyclohexyl]oxy}propyl}methanesulfonamide] | > 10000
Cc1cc(Br)cn(C(CNS(C)(=O)=O)CO[C@H]2CC[C@@H](c3ccccc3)CC2)c1=O (stereo partly drawn) [Example 2x, N-[2-(5-bromo-3-methyl-2-oxo-1,2-dihydropyridin-1-yl)-3-{[(CIS)-4-phenylcyclohexyl]oxy}propyl]methanesulfonamide] | 100 to 1000
CS(=O)(=O)NCC(CO[C@H]1CC[C@@H](c2ccccc2)CC1)n1ccc(C#N)cc1=O (stereo partly drawn) [Example 2y, N-[2-(4-cyano-2-oxo-1,2-dihydropyridin-1-yl)-3-{[(CIS)-4-phenylcyclohexyl]oxy}propyl]methanesulfonamide] | > 10000
CS(=O)(=O)NCC(CO[C@H]1CC[C@@H](c2ccccc2)CC1)n1ccc2cccnc21 (stereo partly drawn) [Example 2z, N-(2-{1H-pyrrolo[2,3-b]pyridin-1-yl}-3-{[(CIS)-4-phenylcyclohexyl]oxy}propyl)methanesulfonamide] | 1000 to 10000
COc1ccn(C)c(=O)c1C(CNS(C)(=O)=O)CO[C@H]1CC[C@@H](c2ccccc2)CC1 (stereo partly drawn) [Example 5b, N-[2-(4-methoxy-1-methyl-2-oxo-1,2-dihydropyridin-3-yl)-3-{[(CIS)-4-phenylcyclohexyl]oxy}propyl]methanesulfonamide] | 1000 to 10000
CS(=O)(=O)NCC(CO[C@H]1CC[C@@H](c2ccccc2)CC1)c1cccn2cnnc12 (stereo partly drawn) [Example 5f, N-(3-{[(CIS)-4-phenylcyclohexyl]oxy}-2-{[1,2,4]triazolo[4,3-a]pyridin-8-yl}propyl)methanesulfonamide] | 100 to 1000
